Measurements reported in ChEMBL document CHEMBL4325844, “Development of 2-amino-4-phenylthiazole analogues to disrupt myeloid differentiation factor 88 and prevent inflammatory responses in acute lung injury” (Eur J Med Chem, 2019).
pKd: −log10 of the molar value. Calls of active or inactive are those of the source. The rule behind the calls is not given here.

Columns and labels:
Peritoneal macrophage = assay: Antiinflammatory activity in ICR mouse primary peritoneal macrophages assessed as inhibition of LPS-induced TNFalpha production at 20 uM preincubated for 60 mins followed by LPS stimulation and measured after 24 hrs by ELISA relative to control; format: functional
[1] = Cytotoxicity against rat H9c2 cells assessed as cell viability at 20 uM after 24 hrs by MTT assay relative to control; format: cell-based; settings: read-out: Activity
[2] = target: Myeloid differentiation primary response protein MyD88 (Homo sapiens, UniProt Q99836); assay: Binding affinity to recombinant human MyD88 TIR domain (157 to 296 residues) expressed in Escherichia coli BL21(DE3) by surface plasmon resonance analysis
Myeloid differentiation primary response protein MyD88, sequence (Q99836 whole entry, the tested form may be a part): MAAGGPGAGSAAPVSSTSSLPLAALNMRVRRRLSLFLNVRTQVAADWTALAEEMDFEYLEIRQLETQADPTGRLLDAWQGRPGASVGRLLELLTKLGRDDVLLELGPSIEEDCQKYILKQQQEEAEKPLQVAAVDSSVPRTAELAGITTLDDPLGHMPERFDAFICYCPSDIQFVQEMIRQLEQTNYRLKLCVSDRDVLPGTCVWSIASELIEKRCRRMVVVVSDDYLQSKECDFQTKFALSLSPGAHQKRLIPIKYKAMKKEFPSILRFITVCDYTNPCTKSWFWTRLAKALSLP

[3] = target: Myeloid differentiation primary response protein MyD88 (Mus musculus) (UniProt P22366); assay: Inhibition of MyD88 in mouse RAW264.7 cells expressing EGFP-fused NFkappaB at 10 uM preincubated for 30 mins followed by LPS-stimulation and measured after 1 hr by fluorescence assay; format: cell-based
Myeloid differentiation primary response protein MyD88 (Mus musculus), sequence (P22366 whole entry, the tested form may be a part): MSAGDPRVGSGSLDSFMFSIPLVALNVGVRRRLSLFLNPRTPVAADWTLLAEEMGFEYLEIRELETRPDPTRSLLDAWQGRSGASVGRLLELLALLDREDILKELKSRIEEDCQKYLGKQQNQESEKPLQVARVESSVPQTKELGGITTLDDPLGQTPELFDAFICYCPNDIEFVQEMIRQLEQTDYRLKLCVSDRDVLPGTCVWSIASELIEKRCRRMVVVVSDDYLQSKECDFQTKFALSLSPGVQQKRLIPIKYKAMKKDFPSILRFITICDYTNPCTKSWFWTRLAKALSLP

Mus musculus [4] = assay: Antiinflammatory activity in LPS-induced C57/BL6 mouse model of acute lung injury assessed as reduction in TNFalpha level in serum at 10 mg/kg, ip pretreated for 30 mins followed by LPS challenge measured after 6 hrs by ELISA; format: functional, organism-based
Mus musculus [5] = assay: Antiinflammatory activity in LPS-induced C57/BL6 mouse model of acute lung injury assessed as reduction in interstitial edema at 10 mg/kg, ip pretreated for 30 mins followed by LPS challenge measured after 6 hrs by hematoxylin and eosin staining based microscopic analysis; format: functional, organism-based
Mus musculus [6] = assay: Antiinflammatory activity in LPS-induced C57/BL6 mouse model of acute lung injury assessed as reduction in pulmonary congestion at 10 mg/kg, ip pretreated for 30 mins followed by LPS challenge measured after 6 hrs by hematoxylin and eosin staining based microscopic analysis; format: functional, organism-based
Mus musculus [7] = assay: Antiinflammatory activity in LPS-induced C57/BL6 mouse model of acute lung injury assessed as reduction in thicken alveolar septa at 10 mg/kg, ip pretreated for 30 mins followed by LPS challenge measured after 6 hrs by hematoxylin and eosin staining based microscopic analysis; format: functional, organism-based
Mus musculus [8] = assay: Antiinflammatory activity in LPS-induced C57/BL6 mouse model of acute lung injury assessed as reduction in ICAM1 mRNA expression at 10 mg/kg, ip pretreated for 30 mins followed by LPS challenge measured after 6 hrs by SYBR green dye based RT-qPCR analysis; format: functional, organism-based

## COc1cc(-c2csc(NC(=O)CCN3CCN(Cc4cccc([N+](=O)[O-])c4)CC3)n2)ccc1O
Peritoneal macrophage
  inhibition at 20 µM: 90.4%
[1]
  viability at 24 h, 20 µM: > 80%
[2]
  Activity: Dose-dependent effect
  Ka: 4830 M⁻¹ s⁻¹
  pKd: 4.46
  Kdiss: 0.167 s⁻¹
[3]
  inhibition: Active
Mus musculus [4]
  Activity: Active
Mus musculus [5]
  Activity: Active
Mus musculus [6]
  Activity: Active
Mus musculus [7]
  Activity: Active
Mus musculus [8]
  Activity: Active
